Test results as given in patent US20220098228A1, “METHODS AND COMPOSITIONS FOR IMPROVING THE IMMUNE SYSTEM AND PROVIDING IMMUNO-PROTECTION” (Natreon, Inc., priority 2020, published 2022).
Marks after values point to notes of the source that are not given here.

Assays:
peritoneal macrophages [1] = assay: NBT reduction assay in peritoneal macrophages, cyclophosphamide-induced immunosuppression (Example II); type: in vivo, Swiss albino mice; conditions: for OD (515 nm), NBT reduction assay in peritoneal macrophages: 10 mg/kg body weight p.o. 7 days + cyclophosphamide 250 mg/kg i.p., Mean ± SD, n = 6; for improvement in NBT reduction capacity: 10 mg/kg body weight p.o., in comparison with cyclophosphamide treated mice
Description: (§1) The mice were acclimatized for one week in the laboratory conditions, before being used in the experiment. All experiments were conducted between 10.00 hr and 14.00 hr. Principles of laboratory animal care (NIH publication no. 85-23, revised 1985) were followed.
(§2) All test compounds (DBPs and DBP glycosides) were suspended in 0.3% of CMC (Carboxymethyl Cellulose) solutions of distilled water and were administered orally for 7 days by using an intubation canula. The volume of dose was 100 μl/10 g body weight. Cyclophosphamide was dissolved in distilled water and was injected (250 mg/kg, i.p.) on day one and volume of dose was 100 μl/10 g body weight. Control animals received equivalent volume of the vehicles CMC (0.3%) solutions only.
On day seven all the animals were sacrificed under ether anesthesia and peritoneal macrophages were lavaged using ice cold phosphate buffer saline (PBS: 0.15M NaCl pH-7.4). After centrifugation (3000 rpm×10 min) at 4° C. the pellet was re-suspended in PBS and cell viability was confirmed by trypan blue exclusion method. (Bala A, Haldar P K, Kar B, Naskar S and Mazumder U K, “Carbon tetrachloride: A hepatotoxin causes oxidative stress in murine peritoneal macrophage and peripheral blood lymphocyte cells” Immunopharmacol. and Immunotoxicol. 34(1): 157-162 (2012)).
Preparation of NBT solution: 0.2% NBT (nitroblue tetrazolium) in PB (Phosphate Buffer, pH 7.4), 5% dextrose and HBSS (Hank's balanced salt solution). The three solutions were mixed in 6:2:4 ratios. (Saxena A K, Singh K P, Srivastava S N, Shukla L J and Shanker R., “Immunomodulating effects of caffeine in rodents” Ind J Exptl Biol. 22: 298-301 (1984)).
Method: 0.5 ml of NBT solution was added to 0.5 ml of peritoneal macrophages (1×10^6 cells/ml) in a micro-centrifuge tube. This mixture was incubated at 37° C. for 45 minutes. The cell suspension was centrifuged at 1500 rpm for 10 minutes. Supernatant was discarded and pellet was re-suspended in 2 ml of DMSO. The tubes were kept in a boiling water bath for 10 minutes. The tubes were again centrifuged at 1500 rpm for 10 minutes. The supernatant was collected, and absorbance was measured at 515 nm.

splenocytes [2] = assay: Cell viability of splenocytes, trypan blue exclusion, cyclophosphamide-induced immunosuppression (Example II); type: in vivo, Swiss albino mice; conditions: for % Cell Viability of splenocytes: 10 mg/kg body weight p.o. 7 days + cyclophosphamide 250 mg/kg i.p., Mean ± SD, n = 6
Description: as §1, §2
Spleen was collected. Single cell suspension was prepared by mincing and tapping the spleen fragments on stainless steel 200-mesh in ice cold phosphate buffer saline (PBS: 0.15M NaCl pH 7.4). Cell suspension was centrifuged at 2000 rpm for 10 minutes. The pellet was re-suspended in PBS and cell viability was confirmed by trypan blue exclusion method.

Swiss albino mice = assay: Cyclophosphamide-induced immunosuppression in mice, overall conclusion (Example II); type: in vivo; conditions: treatment for 7 days at 10 mg/kg body weight (p.o.)
Description: All experiments were conducted between 10.00 hr and 14.00 hr. […] Control animals received equivalent volume of the vehicles CMC (0.3%) solutions only.

[3] = mouse, in vivo
Description: (§3) Male and female Swiss albino mice (n=8; 4 from each gender) weighing approximately 25±5 g, were obtained from National Research Institute of Ayurveda for Drug Development (Govt. of India), Kolkata, and were housed in polypropylene cages at 22±3° C., relative air humidity of 45 to 55%, with 12.00 h light & dark cycle (lighting on from 6:00 AM to 6:00 PM). […] The mice were acclimatized for one week in the laboratory conditions, before being used in the experiment. All experiments were conducted between 10.00 h and 14.00 h. Principles of laboratory animal care (NIH publication no. 85-23, revised 1985) was followed.
(§4) Cyclophosphamide was dissolved in distilled water and the mice were administered a single exposure (250 mg/kg, i.p.) on day 1.
(§5) 3-OH-DBP, 3,8-(OH)2-DBP, and combined 3-OH-DBP+3,8-(OH)2-DBP were administered once daily for 7 days starting from day 1. Following 7 days of treatment the mice were anaesthetized and sacrificed under anaesthesia followed by collection of peritoneal macrophages and spleen (for splenocyte isolation).
(§6) Swiss albino mice were randomly divided into 8 Groups (n=8; 4 from each gender). […] (2:10) (12 mg/kg b.w., p.o.), Group VI mice were administered 3-OH-DBP (10 mg/kg b.w., p.o.), Group VII mice were administered 3,8-(OH)2-DBP (50 mg/kg b.w., p.o.), Group VIII mice were administered [3-OH-DBP+3,8-(OH)2-DBP] (10:50) (60 mg/kg b.w., p.o.).
(§7) Results were expressed in terms of mean±SEM (n=8; 4 from each gender). Data were subjected to one way ANOVA followed by Tukey's test using GraphPad Prism 4.0 software to establish statistical significance (*p<0.05, **p<0.01, ***p<0.001, where * refers to comparison with Group I vehicle control; #p<0.05, ##p<0.01, ###p<0.001, where #refers to comparison with Group II cyclophosphamide administration; ^ap<0.05, ^aap<0.01, ^aap<0.01, where a refers to comparison of Day 7 with Day 0).

peritoneal macrophages [4] = assay: Peritoneal macrophage viability, trypan blue exclusion (Example III); type: in vivo, Swiss albino mice
Description: as §3, §4, §5, §6
(§8) All the animals were sacrificed under ether anesthesia and peritoneal macrophages were lavaged using ice cold phosphate buffer saline (PBS: 0.15 M NaCl; pH: 7.4). After centrifugation (3000 rpm×10 min) at 4° C., pellets were re-suspended in PBS and cell viability was confirmed by trypan blue exclusion assay.
as §7

peritoneal macrophages [5] = assay: NBT reduction of peritoneal macrophages (Example III); type: in vivo, Swiss albino mice; conditions: for NBT reduction compared with vehicle control: cyclophosphamide, 3-OH-DBP 2 and 10 mg/kg, combined 12 mg/kg
Description: as §3, §4, §5, §6, §8
Preparation of NBT solution: 0.2% NBT (nitroblue tetrazolium) in PBS (pH 7.4), 5% dextrose and HBSS. These three solutions were mixed in 6:2:4 ratios.
0.5 ml of NBT solution was added to 0.5 ml of peritoneal macrophages (1×10^6 cells/ml) in micro-centrifuge tube. This mixture was incubated at 37° C. for 2 hours. The cell suspension was centrifuged at 2000 rpm for 10 minutes. Supernatants were discarded and pellets were re-suspended in 1 ml of DMSO. The tubes were kept in boiling water bath for 10 minutes and then cooled and centrifuged at 2000 rpm for 10 minutes. The supernatants were collected and absorbance was measured at 515 nm.
as §7

splenocytes [6] = assay: Splenocyte viability, trypan blue exclusion (Example III); type: in vivo, Swiss albino mice; conditions: for % Viability Day7, splenocyte viability: Day 7
Description: as §3, §4, §5, §6
Spleens were collected and single cell suspension was prepared by mincing and tapping the spleen fragments on stainless steel 200-mesh in ice cold phosphate buffer saline (PBS: 0.15M NaCl; pH: 7.4). Cell suspensions were centrifuged at 2000 rpm for 10 minutes.
as §7

[7] = female mice, 3-OH-DBP 2 and 10 mg/kg, 3,8-(OH)2-DBP 10 and 50 mg/kg, combined 12 and 60 mg/kg
[8] = female mice, 2 mg/kg p.o. + cyclophosphamide 250 mg/kg i.p.
[9] = female mice, 10 mg/kg p.o. + cyclophosphamide 250 mg/kg i.p.
[10] = male mice, 3-OH-DBP 10 mg/kg, 3,8-(OH)2-DBP 50 mg/kg, combined 60 mg/kg
[11] = male mice, 2 mg/kg p.o. + cyclophosphamide 250 mg/kg i.p.
[12] = male mice, 10 mg/kg p.o. + cyclophosphamide 250 mg/kg i.p.

SMILES: O=c1oc2cc(OC3OC(CO)C(O)C(O)C3O)ccc2c2ccccc12 [3-OH-DBP glycoside, 3-O-D-Glucopyranosyl-Dibenzo-alpha-pyrone]
- OD (515 nm), NBT reduction assay in peritoneal macrophages (peritoneal macrophages [1]): 0.168 ± 0.014
- improvement in NBT reduction capacity (peritoneal macrophages [1]): highest level of improvement
- % Cell Viability of splenocytes (splenocytes [2]): 60.39 ± 5.85 %
- improvement in splenocyte viability (splenocytes [2]; 10 mg/kg p.o. in cyclophosphamide-treated mice): significant improvement
- Cyclophosphamide-induced immunosuppression (conclusion) (Swiss albino mice): rescued

SMILES: O=c1oc2cc(OC3OC(CO)C(O)C(O)C3O)ccc2c2ccc(OC3OC(CO)C(O)C(O)C3O)cc12 [3,8-(OH)2-DBP glycoside, 3,8-di-(O-D-Glucopyranosyl)-Dibenzo-alpha-pyrone]
- OD (515 nm), NBT reduction assay in peritoneal macrophages (peritoneal macrophages [1]): 0.153 ± 0.013
- improvement in NBT reduction capacity (peritoneal macrophages [1]): moderate (p<0.05) improvement
- % Cell Viability of splenocytes (splenocytes [2]): 58.58 ± 4.49%
- Cyclophosphamide-induced immunosuppression (conclusion) (Swiss albino mice): rescued

SMILES: O=c1oc2cc(O)ccc2c2ccccc12 [3-OH-DBP, 3-hydroxy-dibenzo-alpha-pyrone]
- OD (515 nm), NBT reduction assay in peritoneal macrophages (peritoneal macrophages [1]): 0.154 ± 0.019
- improvement in NBT reduction capacity (peritoneal macrophages [1]): moderate (p<0.05) improvement
- % Cell Viability of splenocytes (splenocytes [2]): 59.70 ± 3.59%
- feed intake Day 7 in comparison to Day 0 [3]: significantly (p<0.05, p<0.01) decreased
- feed intake compared to vehicle control [3]: significantly (p<0.05, p<0.01) decreased
- water intake compared with cyclophosphamide treated mice [3]: significantly (p<0.001) decreased
- water intake compared with vehicle control [3]: significantly (p<0.001) decreased
- water intake compared with vehicle control and cyclophosphamide treated mice [3]: significantly (p<0.05, p<0.001) decreased
- peritoneal macrophage viability compared with cyclophosphamide treated mice (peritoneal macrophages [4]; [7]): significantly (p<0.05, p<0.01) increased
- % Viability Day 7, peritoneal macrophage viability (peritoneal macrophages [4]; [8]): 62.53 ± 2.14** %
- % Viability Day 7, peritoneal macrophage viability (peritoneal macrophages [4]; [9]): 72.56 ± 2.01^# %
- peritoneal macrophage viability compared with cyclophosphamide treated mice (peritoneal macrophages [4]; [10]): significantly (p<0.05, p<0.01) increased
- % Viability Day 7, peritoneal macrophage viability (peritoneal macrophages [4]; [11]): 59.90 ± 0.51* %
- % Viability Day 7, peritoneal macrophage viability (peritoneal macrophages [4]; [12]): 69.64 ± 2.77# %
- peritoneal macrophage viability compared with vehicle control (peritoneal macrophages [4]; male mice, cyclophosphamide, 3-OH-DBP 2 mg/kg, 3,8-(OH)2-DBP 10 mg/kg): significantly (p<0.05) decreased
- NBT reduction compared with cyclophosphamide treated mice (peritoneal macrophages [5]; female mice, 3-OH-DBP 10 mg/kg, 3,8-(OH)2-DBP 50 mg/kg, combined 12 and 60 mg/kg): significantly (p<0.05, p<0.01, p<0.001) increased
- O.D. (515 nm) Day 7, NBT reduction of peritoneal macrophages (peritoneal macrophages [5]; [8]): 0.142 ± 0.005***
- O.D. (515 nm) Day 7, NBT reduction of peritoneal macrophages (peritoneal macrophages [5]; [9]): 0.207 ± 0.02**,##
- NBT reduction compared with vehicle control (peritoneal macrophages [5]; female mice, 3,8-(OH)2-DBP 10 and 50 mg/kg): significantly (p<0.05, p<0.01, p<0.001) decreased
- O.D (515 nm) Day 7, NBT reduction of peritoneal macrophages (peritoneal macrophages [5]; [11]): 0.257 ± 0.02338***
- O.D (515 nm) Day 7, NBT reduction of peritoneal macrophages (peritoneal macrophages [5]; [12]): 0.232 ± 0.04097***
- NBT reduction compared with vehicle control (peritoneal macrophages [5]; male mice, 3,8-(OH)2-DBP 10 mg/kg): significantly (p<0.01, p<0.001) decreased
- splenocyte viability compared with cyclophosphamide treated mice (splenocytes [6]; [7]): significantly (p<0.05, p<0.01, p<0.001) increased
- % Viability Day7, splenocyte viability (splenocytes [6]; [8]): 88.40 ± 1.61# %
- % Viability Day7, splenocyte viability (splenocytes [6]; [9]): 90.77 ± 1.77## %
- splenocyte viability compared with cyclophosphamide treated mice (splenocytes [6]; [10]): significantly higher
- % Viability Day7, splenocyte viability (splenocytes [6]; [11]): 69.34 ± 1.84*** %
- % Viability Day7, splenocyte viability (splenocytes [6]; [12]): 80.9 ± 1.24## %
- splenocyte viability compared with vehicle control (splenocytes [6]; male mice, cyclophosphamide, 2 mg/kg 3-OH-DBP, 10 mg/kg 3,8-(OH)2-DBP, 12 mg/kg combined): similarly decreased
